Experiments:
[1] = biological target: T1, R334X/WT CXCR4 (RX/WT Jurkat cells) (Homo sapiens, UniProt P61073); assay: ERK activation assay (phosphoflow p-T202/Y204 ERK), Jurkat cells; assay type: cell-based; conditions: 10 nM CXCL12 for 5 min
T1 construct: cells endogenously expressing WT, R334X/WT or R334X/R334X CXCR4 at similar levels; endogenous in cells; host or cells: Jurkat E6-1 clone B2 (CRISPR-Cas9 edited, made at Applied StemCell)
Protocol: (§1) Stable K562 clones expressing CXCR4 or Jurkat cells were seeded in starvation medium in 96-well plates overnight. After treatment, the cells were fixed with fixation solution (eBioscience, Thermo Fisher Scientific, Waltham, Massachusetts, USA) for 10 min at room temperature, then permeabilized for 5 min with ice-cold methanol on ice followed by a washing step with wash/permeabilization solution (eBioscience, Thermo Fisher Scientific, Waltham, Massachusetts, USA). Cells were then stained with Alexa Fluor 647 Mouse Anti-ERK1/2 (Product code 612593, pT202/pY204, 1/10 dilution, BD Biosciences) and Alexa Fluor 488 Mouse anti-Akt (Product code 560404, pS473, 1/10 dilution, BD Biosciences) for 1 h at room temperature in the dark. Cells were then washed 2 times in wash/permeabilization solution and resuspended in flow buffer (HBSS with Ca^2+ and Mg^2+ + 0.1% BSA + 20 mM HEPES pH 7.4). Samples were measured via flow cytometry (CytoFLEX Flow Cytometer) and analyzed in FCS Express software. After gating cells based on the FCS/SSC, MFI of the respective staining was exported for further analysis.

[2] = biological target: T2, R334X/R334X CXCR4 (RX/RX Jurkat cells) (Homo sapiens, UniProt P61073); assay: as above; assay type: cell-based; conditions: 10 nM CXCL12 for 5 min
T2 construct: a cellular model of homozygous and heterozygous R334X CXCR4 in an endogenous locus; host or cells: Jurkat (E6-1, ATCC), CRISPR-Cas9 clones A3 and B5 (RX/RX)
Protocol: as §1

[3] = biological target: CXCR4 (WT/WT, RX/WT, RX/RX) (Homo sapiens, UniProt P61073); assay: Ligand binding inhibition assay (AF647-CXCL12), Jurkat cells, across all cell lines
Protocol: Jurkat cells were washed once with assay buffer (HBSS + 20 mM HEPES buffer +0.2% BSA, pH 7.4) and then incubated for 15 min at room temperature with test compound diluted in assay buffer at dose-dependent concentrations. […] The cells were incubated for 30 min at room temperature. Thereafter, the cells were washed twice in assay buffer, fixed with 1% paraformaldehyde in PBS, and analyzed by flow cytometry (Cytoflex). […] The percentage of inhibition was calculated according to the formula: [1-((MFI-MFINC)/(MFIPC-MFINC))]*100 where MFI is the mean fluorescence intensity of cells in the presence of an inhibitor, MFINC is mean fluorescence intensity of cells in the absence of the ligand and MFIPC is mean fluorescence intensity of cells in the presence of the ligand alone.

all CXCR4^WHIM variants = all CXCR4^WHIM variants (Homo sapiens, UniProt P61073); assay: Ca2+ mobilization assay, K562 cells, pooled over variants; assay type: cell-based; conditions: K562, read-out: Emax of mavorixafor, Ca2+ mobilization, range over variants
Protocol: Stable K562 clones expressing CXCR4 (1 × 10^5 cells/well) were seeded in black 96-well plates with transparent bottom coated with poly-L-lysine (BioCoat®, Corning) and serum-starved for 24 h. Medium was removed and cells were loaded with 100 µl of fluo-4 AM (3 µM, Invitrogen) dye solution for 45 min at 37 °C. Dye solution was prepared by diluting fluo-4 powder in DMSO + 10% Pluronic F127 (Thermo Fisher Scientific, Waltham, Massachusetts, USA) to 3 mM and then preparing the final dilution in assay buffer (HBSS with Ca^2+ and Mg^2+, 20 mM HEPES, 0.375 g/l NaHCO3, 0.1% BSA + 0.77 g/L probenecid [Thermo Fisher Scientific]). Subsequently, 100 µl of assay buffer alone or assay buffer with compound dilutions was added and the plates were equilibrated in the plate reader for an additional 20 min at 37 °C. […] Raw traces were analyzed in SoftMax Pro 7 Software (Molecular Devices). The arbitrary units were calculated as the difference between maximal and minimal signal after treatment injection, normalized to the baseline signal before injection. Maximal effect (Emax) and half-maximal effective and inhibitory concentrations (EC50 and IC50, respectively) were calculated in Prism (GraphPad Software, San Diego, California, USA).

[4] = test system: WT CXCR4 and CXCR4^WHIM variants; assay: ERK activation assay (phosphoflow p-T202/Y204 ERK), K562 cells with stable CXCR4 expression; assay type: cell-based, human; conditions: 40 nM, 200 nM or 1 µM mavorixafor, 10 nM CXCL12 for 5 min
Protocol: as §1

[5] = biological target: CXCR4 (WT/WT, RX/WT, RX/RX Jurkat cells) (Homo sapiens, UniProt P61073); assay: ERK activation assay (phosphoflow), all Jurkat cell lines tested; assay type: cell-based; conditions: 40 nM, 200 nM or 1 µM mavorixafor, 10 nM CXCL12 for 5 min
Protocol: as §1

CXCR4 G336X = biological target: T3, CXCR4 G336X (Homo sapiens, UniProt P61073); assay: Ca2+ mobilization assay, K562 cells with stable CXCR4 expression; assay type: cell-based; conditions: K562, read-out: Emax (% inhibition) of mavorixafor, Ca2+ mobilization
T3 construct: expressed in transfected cells; host or cells: K562
Protocol: (§2) Stable K562 clones expressing CXCR4 (1 × 10^5 cells/well) were seeded in black 96-well plates with transparent bottom coated with poly-L-lysine (BioCoat®, Corning) and serum-starved for 24 h. Medium was removed and cells were loaded with 100 µl of fluo-4 AM (3 µM, Invitrogen) dye solution for 45 min at 37 °C. Dye solution was prepared by diluting fluo-4 powder in DMSO + 10% Pluronic F127 (Thermo Fisher Scientific, Waltham, Massachusetts, USA) to 3 mM and then preparing the final dilution in assay buffer (HBSS with Ca^2+ and Mg^2+, 20 mM HEPES, 0.375 g/l NaHCO3, 0.1% BSA + 0.77 g/L probenecid [Thermo Fisher Scientific]). Subsequently, 100 µl of assay buffer alone or assay buffer with compound dilutions was added and the plates were equilibrated in the plate reader for an additional 20 min at 37 °C. Jurkat cells (3 × 10^5 cells/well) were incubated with the Screen Quest Calbryte-520 Probenecid-Free and Wash-Free Calcium Assay Kit (AAT Bioquest, Sunnyvale, California, USA) according to manufacturer’s instructions. […] Raw traces were analyzed in SoftMax Pro 7 Software (Molecular Devices). The arbitrary units were calculated as the difference between maximal and minimal signal after treatment injection, normalized to the baseline signal before injection. Maximal effect (Emax) and half-maximal effective and inhibitory concentrations (EC50 and IC50, respectively) were calculated in Prism (GraphPad Software, San Diego, California, USA).

CXCR4 T318P fs*3 = biological target: T4, CXCR4 T318P fs*3 (Homo sapiens, UniProt P61073); assay: as above; assay type: cell-based; conditions: K562, read-out: Emax (% inhibition) of mavorixafor, Ca2+ mobilization
T4 construct: expressed in transfected cells; host or cells: K562
Protocol: as §2

CXCR4 E343K = biological target: T5, CXCR4 E343K (Homo sapiens, UniProt P61073, E343K); assay: as above; assay type: cell-based; conditions: K562, read-out: Emax (% inhibition) of mavorixafor, Ca2+ mobilization
T5 construct: expressed in transfected cells; host or cells: K562
Protocol: as §2

CXCR4 L329Q fs*13 = biological target: T6, CXCR4 L329Q fs*13 (Homo sapiens, UniProt P61073); assay: as above; assay type: cell-based; conditions: K562, read-out: Emax (% inhibition) of mavorixafor, Ca2+ mobilization
T6 construct: expressed in transfected cells; host or cells: K562
Protocol: as §2

CXCR4 S319C fs*24 = biological target: T7, CXCR4 S319C fs*24 (Homo sapiens, UniProt P61073); assay: as above; assay type: cell-based; conditions: K562, read-out: Emax (% inhibition) of mavorixafor, Ca2+ mobilization
T7 construct: expressed in transfected cells; host or cells: K562
Protocol: as §2

CXCR4 S339C fs*4 = biological target: T8, CXCR4 S339C fs*4 (Homo sapiens, UniProt P61073); assay: as above; assay type: cell-based; conditions: K562, read-out: Emax (% inhibition) of mavorixafor, Ca2+ mobilization
T8 construct: expressed in transfected cells; host or cells: K562
Protocol: as §2

CXCR4 S324V fs*20 = biological target: T9, CXCR4 S324V fs*20 (Homo sapiens, UniProt P61073); assay: as above; assay type: cell-based; conditions: K562, read-out: Emax (% inhibition) of mavorixafor, Ca2+ mobilization
T9 construct: expressed in transfected cells; host or cells: K562
Protocol: as §2

CXCR4 E343X = biological target: T10, CXCR4 E343X (Homo sapiens, UniProt P61073); assay: as above; assay type: cell-based; conditions: K562, read-out: Emax (% inhibition) of mavorixafor, Ca2+ mobilization
T10 construct: expressed in transfected cells; host or cells: K562
Protocol: as §2

CXCR4 R334X = biological target: T11, CXCR4 R334X (Homo sapiens, UniProt P61073); assay: as above; assay type: cell-based; conditions: K562, read-out: Emax (% inhibition) of mavorixafor, Ca2+ mobilization
T11 construct: expressed in transfected cells; host or cells: K562
Protocol: as §2

CXCR4 S341P fs*25 = biological target: T12, CXCR4 S341P fs*25 (Homo sapiens, UniProt P61073); assay: as above; assay type: cell-based; conditions: K562, read-out: Emax (% inhibition) of mavorixafor, Ca2+ mobilization
T12 construct: expressed in transfected cells; host or cells: K562
Protocol: as §2

WT CXCR4 = biological target: T13, WT CXCR4 (Homo sapiens, UniProt P61073); assay: as above; assay type: cell-based; conditions: K562, read-out: Emax (% inhibition) of mavorixafor, Ca2+ mobilization
T13 construct: cloned into pcDNA3.1(Hygro+) via NheI/EcoRV to give pcDNA3.1_CXCR4; expressed in transfected cells; host or cells: K562
Protocol: as §2

CXCR4 S339F fs*6 = biological target: T14, CXCR4 S339F fs*6 (Homo sapiens, UniProt P61073); assay: as above; assay type: cell-based; conditions: K562, read-out: Emax (% inhibition) of mavorixafor, Ca2+ mobilization
T14 construct: expressed in transfected cells; host or cells: K562
Protocol: as §2

CXCR4 V320E fs*23 = biological target: T15, CXCR4 V320E fs*23 (Homo sapiens, UniProt P61073); assay: as above; assay type: cell-based; conditions: K562, read-out: Emax (% inhibition) of mavorixafor, Ca2+ mobilization
T15 construct: expressed in transfected cells; host or cells: K562
Protocol: as §2

CXCR4 S338X = biological target: T16, CXCR4 S338X (Homo sapiens, UniProt P61073); assay: as above; assay type: cell-based; conditions: K562, read-out: Emax (% inhibition) of mavorixafor, Ca2+ mobilization
T16 construct: expressed in transfected cells; host or cells: K562
Protocol: as §2

[6] = test system: WT CXCR4 and CXCR4^WHIM variants; assay: AKT activation assay (phosphoflow p-S473 AKT), K562 cells with stable CXCR4 expression; assay type: cell-based, human; conditions: 40 nM, 200 nM or 1 µM mavorixafor, 10 nM CXCL12 for 5 min
Protocol: as §1

T3 sequence (P61073 1-335 limits assumed): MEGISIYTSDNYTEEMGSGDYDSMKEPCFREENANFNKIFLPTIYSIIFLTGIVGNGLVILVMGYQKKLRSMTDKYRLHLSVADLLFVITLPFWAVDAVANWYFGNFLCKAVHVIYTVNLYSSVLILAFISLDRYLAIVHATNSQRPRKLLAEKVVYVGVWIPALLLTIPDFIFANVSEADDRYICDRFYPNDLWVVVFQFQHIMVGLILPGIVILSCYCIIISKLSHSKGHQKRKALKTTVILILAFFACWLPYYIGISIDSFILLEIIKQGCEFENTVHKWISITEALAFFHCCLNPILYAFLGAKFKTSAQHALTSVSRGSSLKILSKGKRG
T4 sequence (P61073 with tags, fused parts or gaps, stated change not applied): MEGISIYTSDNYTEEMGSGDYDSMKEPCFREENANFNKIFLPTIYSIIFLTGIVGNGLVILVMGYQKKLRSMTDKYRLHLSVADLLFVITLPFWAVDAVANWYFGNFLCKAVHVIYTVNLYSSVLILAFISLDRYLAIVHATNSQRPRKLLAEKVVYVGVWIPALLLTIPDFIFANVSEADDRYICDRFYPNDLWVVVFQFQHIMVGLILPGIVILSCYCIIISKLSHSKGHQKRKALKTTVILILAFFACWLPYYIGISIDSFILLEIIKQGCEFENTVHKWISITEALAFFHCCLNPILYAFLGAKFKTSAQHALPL
T5 sequence (P61073 whole entry E343K): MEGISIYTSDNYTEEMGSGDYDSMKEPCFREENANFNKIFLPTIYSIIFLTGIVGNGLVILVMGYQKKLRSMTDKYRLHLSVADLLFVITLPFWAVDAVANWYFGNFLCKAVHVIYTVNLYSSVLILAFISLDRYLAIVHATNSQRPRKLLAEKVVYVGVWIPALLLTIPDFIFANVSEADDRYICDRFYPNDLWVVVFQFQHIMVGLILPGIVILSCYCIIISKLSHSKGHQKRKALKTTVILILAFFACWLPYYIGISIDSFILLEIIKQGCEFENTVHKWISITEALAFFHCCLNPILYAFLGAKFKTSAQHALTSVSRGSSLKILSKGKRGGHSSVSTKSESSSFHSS
T11 sequence (P61073 1-333 limits assumed): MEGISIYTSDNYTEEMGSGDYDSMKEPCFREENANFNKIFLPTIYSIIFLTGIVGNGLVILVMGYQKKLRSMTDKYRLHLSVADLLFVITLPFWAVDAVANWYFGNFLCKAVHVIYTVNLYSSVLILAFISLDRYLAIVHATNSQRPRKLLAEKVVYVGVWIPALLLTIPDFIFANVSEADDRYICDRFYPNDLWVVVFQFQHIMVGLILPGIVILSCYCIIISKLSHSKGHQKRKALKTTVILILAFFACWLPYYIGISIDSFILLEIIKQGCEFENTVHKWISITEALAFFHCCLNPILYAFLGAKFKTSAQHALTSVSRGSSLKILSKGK
CXCR4 (WT/WT, RX/WT, RX/RX), sequence (P61073 1-333 limits assumed): as above
T1 sequence (P61073 1-333 limits assumed): as above
T1 sequence (P61073 whole entry): as the sequence (P61073 whole entry E343K) above, with K343E counted along it
CXCR4 (WT/WT, RX/WT, RX/RX Jurkat cells), sequence (P61073 1-333 limits assumed): as the sequence (P61073 1-333 limits assumed) above
T2 sequence (P61073 1-333 limits assumed): as above
T12 sequence (P61073 with tags, fused parts or gaps, stated change not applied): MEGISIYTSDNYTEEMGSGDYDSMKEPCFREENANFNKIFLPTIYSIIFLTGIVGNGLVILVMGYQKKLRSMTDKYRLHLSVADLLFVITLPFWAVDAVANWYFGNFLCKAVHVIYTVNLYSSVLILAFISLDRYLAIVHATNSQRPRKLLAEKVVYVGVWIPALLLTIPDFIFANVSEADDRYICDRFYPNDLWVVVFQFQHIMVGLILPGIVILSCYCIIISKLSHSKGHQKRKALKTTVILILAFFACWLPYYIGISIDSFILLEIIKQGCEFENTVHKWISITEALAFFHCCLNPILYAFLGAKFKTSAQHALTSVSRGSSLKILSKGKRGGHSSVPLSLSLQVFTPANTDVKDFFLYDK
T10 sequence (P61073 1-342 limits assumed): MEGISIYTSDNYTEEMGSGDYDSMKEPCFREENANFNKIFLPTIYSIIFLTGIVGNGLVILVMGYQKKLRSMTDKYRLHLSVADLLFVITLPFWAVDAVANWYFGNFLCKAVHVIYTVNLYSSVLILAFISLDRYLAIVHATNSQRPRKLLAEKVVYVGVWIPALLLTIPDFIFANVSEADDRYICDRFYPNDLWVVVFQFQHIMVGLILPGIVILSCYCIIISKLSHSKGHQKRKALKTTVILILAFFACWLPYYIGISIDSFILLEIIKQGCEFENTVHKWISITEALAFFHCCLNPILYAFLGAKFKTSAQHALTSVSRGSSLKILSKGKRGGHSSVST
T13 sequence (P61073 whole entry): as the sequence (P61073 whole entry E343K) above, with K343E counted along it
T7 sequence (P61073 with tags, fused parts or gaps, stated change not applied): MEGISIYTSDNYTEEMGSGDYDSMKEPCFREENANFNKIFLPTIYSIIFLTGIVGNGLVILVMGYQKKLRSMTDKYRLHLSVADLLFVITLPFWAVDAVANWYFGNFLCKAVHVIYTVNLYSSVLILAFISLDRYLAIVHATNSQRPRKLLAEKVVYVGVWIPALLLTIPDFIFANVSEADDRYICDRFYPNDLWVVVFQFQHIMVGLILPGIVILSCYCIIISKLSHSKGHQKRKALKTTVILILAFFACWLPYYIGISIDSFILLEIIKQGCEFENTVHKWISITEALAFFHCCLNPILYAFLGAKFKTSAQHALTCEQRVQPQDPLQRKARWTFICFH
T14 sequence (P61073 with tags, fused parts or gaps, stated change not applied): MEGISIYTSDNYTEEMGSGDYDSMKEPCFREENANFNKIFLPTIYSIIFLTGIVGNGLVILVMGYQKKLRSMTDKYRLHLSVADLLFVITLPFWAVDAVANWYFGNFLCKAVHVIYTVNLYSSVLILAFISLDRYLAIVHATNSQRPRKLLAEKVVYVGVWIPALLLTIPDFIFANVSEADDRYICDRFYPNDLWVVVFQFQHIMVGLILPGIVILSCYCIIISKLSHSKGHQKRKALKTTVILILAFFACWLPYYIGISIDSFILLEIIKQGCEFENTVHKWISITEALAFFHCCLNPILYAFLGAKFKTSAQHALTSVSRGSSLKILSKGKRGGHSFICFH
T6 sequence (P61073 with tags, fused parts or gaps, stated change not applied): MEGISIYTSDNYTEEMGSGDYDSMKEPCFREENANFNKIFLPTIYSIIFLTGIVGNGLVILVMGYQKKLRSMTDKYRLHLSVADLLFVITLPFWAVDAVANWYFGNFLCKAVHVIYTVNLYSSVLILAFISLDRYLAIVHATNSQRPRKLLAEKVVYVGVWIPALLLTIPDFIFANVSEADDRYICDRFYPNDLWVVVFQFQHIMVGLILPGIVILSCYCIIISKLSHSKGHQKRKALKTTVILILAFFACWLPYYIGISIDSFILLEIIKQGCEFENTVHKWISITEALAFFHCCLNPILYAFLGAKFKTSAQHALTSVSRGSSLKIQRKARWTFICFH
T9 sequence (P61073 with tags, fused parts or gaps, stated change not applied): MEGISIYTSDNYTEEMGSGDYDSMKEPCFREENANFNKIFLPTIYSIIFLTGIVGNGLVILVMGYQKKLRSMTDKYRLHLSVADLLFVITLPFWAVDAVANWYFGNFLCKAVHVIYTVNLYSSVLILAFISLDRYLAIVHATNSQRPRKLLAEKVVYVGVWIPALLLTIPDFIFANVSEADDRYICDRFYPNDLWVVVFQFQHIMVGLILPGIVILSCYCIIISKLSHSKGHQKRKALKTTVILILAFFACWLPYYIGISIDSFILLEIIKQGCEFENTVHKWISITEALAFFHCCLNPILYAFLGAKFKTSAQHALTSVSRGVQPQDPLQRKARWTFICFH
T16 sequence (P61073 1-337 limits assumed): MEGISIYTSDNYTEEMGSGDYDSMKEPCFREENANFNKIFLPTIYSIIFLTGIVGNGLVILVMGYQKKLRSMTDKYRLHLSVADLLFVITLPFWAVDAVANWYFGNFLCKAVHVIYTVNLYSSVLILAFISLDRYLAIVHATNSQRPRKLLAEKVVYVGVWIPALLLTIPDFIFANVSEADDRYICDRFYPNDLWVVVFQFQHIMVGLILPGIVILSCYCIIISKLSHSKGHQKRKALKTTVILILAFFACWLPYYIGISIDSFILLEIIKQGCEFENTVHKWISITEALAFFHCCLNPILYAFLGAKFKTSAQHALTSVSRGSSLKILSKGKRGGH
T8 sequence (P61073 with tags, fused parts or gaps, stated change not applied): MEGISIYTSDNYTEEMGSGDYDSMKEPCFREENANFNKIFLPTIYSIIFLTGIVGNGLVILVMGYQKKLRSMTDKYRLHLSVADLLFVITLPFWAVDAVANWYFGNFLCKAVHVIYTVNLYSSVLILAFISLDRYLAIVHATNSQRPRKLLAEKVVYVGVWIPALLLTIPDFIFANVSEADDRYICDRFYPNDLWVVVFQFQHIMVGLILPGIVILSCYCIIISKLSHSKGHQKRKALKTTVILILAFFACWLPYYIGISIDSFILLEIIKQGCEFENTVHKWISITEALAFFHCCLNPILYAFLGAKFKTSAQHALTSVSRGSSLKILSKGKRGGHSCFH
T15 sequence (P61073 with tags, fused parts or gaps, stated change not applied): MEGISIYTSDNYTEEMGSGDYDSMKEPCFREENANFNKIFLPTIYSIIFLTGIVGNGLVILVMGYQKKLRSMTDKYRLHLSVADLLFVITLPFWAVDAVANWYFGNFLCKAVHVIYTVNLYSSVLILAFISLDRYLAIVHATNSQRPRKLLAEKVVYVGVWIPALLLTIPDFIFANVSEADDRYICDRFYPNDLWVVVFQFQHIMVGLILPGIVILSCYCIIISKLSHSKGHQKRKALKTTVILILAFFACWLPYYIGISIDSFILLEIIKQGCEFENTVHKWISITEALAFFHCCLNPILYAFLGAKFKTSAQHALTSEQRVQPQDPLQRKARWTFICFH

Concentration that normalized the hyperactive ERK signaling [1]: 40 nM
Concentration that normalized the hyperactive ERK signaling [2]: 200 nM
Efficacy of inhibition of CXCL12 binding to CXCR4 [3]: 100%
Emax (all CXCR4^WHIM variants): 51 to 90%
Effect on CXCL12-stimulated ERK activation [5]: inhibited
Emax (CXCR4 G336X): 82%
Emax (CXCR4 T318P fs*3): 88%
Emax (CXCR4 E343K): 66%
Emax (CXCR4 L329Q fs*13): 51%
Emax (CXCR4 S319C fs*24): 76%
Emax (CXCR4 S339C fs*4): 77%
Emax (CXCR4 S324V fs*20): 58%
Emax (CXCR4 E343X): 90%
Emax (CXCR4 R334X): 72%
Emax (CXCR4 S341P fs*25): 57%
Emax (WT CXCR4): 84%
Emax (CXCR4 S339F fs*6): 59%
Emax (CXCR4 V320E fs*23): 65%
Emax (CXCR4 S338X): 89%
Structure (SMILES): NCCCCN(Cc1nc2ccccc2[nH]1)[C@H]1CCCc2cccnc21 [mavorixafor]
Effect on CXCL12-dependent ERK activation [4]: inhibited
Effect on CXCL12-dependent AKT activation [6]: inhibited
